Laboratory results taken from patent US11746354B2, “Homology dependent repair genome editing” (Inari Agriculture Technology, Inc., priority 2019, dated 2023).

System: maize (Zea mays) r1-colored1 gene
Experiment: HDR editing of an endogenous gene in maize protoplasts (RNP + dsDNA donor template, MiSeq sequencing)
Type: cell-based
Design: unit not given here
Settings: 5 μM compound, 0.1% DMSO, B104 maize protoplasts, 48 hours at 26 degrees Celsius in the dark, average of triplicate samples; for Hypoxia Avg. (HDR): hypoxic conditions; for Normoxia Avg. (HDR): normoxic conditions
Description: This example describes a second set of experiments which investigated the effects of the 81 small molecules previously identified in the “traffic light” screen (Example 1) on HDR efficiency in editing an endogenous gene, the maize (Zea mays) r1-colored1 gene with partial genomic sequence SEQ ID NO: 5. A ribonucleoprotein (RNP) was prepared with a guide RNA designed to edit the promoter located at positions 313-333 of SEQ ID NO:5. A donor template was provided as a dsDNA for HDR repair. The experiments were carried out with protoplasts produced from etiolated leaves of B104 maize grown in the dark for 11 days. The protoplasts were co-transfected with the RNP and donor template. Transfected cells were incubated 48 hours at 26 degrees Celsius in the dark under either normoxic or hypoxic conditions with the indicated negative controls, positive controls, and small molecules and then harvested. The negative controls comprised cells transfected with the RNP only (no donor template). DMSO controls comprised the RNP and donor template and DMSO at a final concentration of 0.5% by volume DMSO. The positive control was a mixture of KU-0060648 (CAS No. 881375-00-4; Fischer Scientific, Waltham, Mass., USA), STL127705 (7-[2-(3,4-dimethoxyphenyl)ethyl]amino-3-(3-fluorophenyl)pyrimido[4,5-d]pyrimidine-2,4(1H,3H)-dione); Vitas-M, Champaign, Ill., USA), NU7441 (CAS No. 503468-95-9; Fischer Scientific Waltham, Mass., USA), and SCR7 pyrazine (CAS No. 14892-97-8; Tocris, Minneapolis, Minn., USA) (all at a stock concentration of 5 mM in DMSO) that was provided to the protoplasts at a final concentration of each of the four compounds of 5 μM. Certain positive control compounds have been reported to increase CRISPR-mediated HDR (Robert et al. 2015; Chu et al., 2015). All of the tested small molecules were also provided to the protoplasts at a final concentration of 5 μM of the compound and a final DMSO concentration of 0.1% by volume. Genomic DNA was isolated using KAPA Pure Bead capture (Kapa Biosystem) and the isolated gDNA was used as the template for a PCR with PHUSION FLASH (ThermoFisher). Samples were cleaned with KAPA Pure Bead capture and Illumina libraries were prepared and sequenced on MiSeq.

## Nc1nccc(-c2ccc3noc(-c4ccc(Cl)cc4)c3c2)n1 [PIM-1 Inhibitor 2]
  Hypoxia Avg. (HDR): 5.19
  Normoxia Avg. (HDR): 1.37

## O=S(=O)(NCCCCCCc1ccccc1)c1cccc2c(Cl)cccc12 [SC-9]
  Hypoxia Avg. (HDR): 5.11
  Normoxia Avg. (HDR): 2.67

## CC(=O)NCCNc1cc(Cl)nn2c(-c3cccc(S(=O)(=O)N(C)C)c3)c(C)nc12 [MI 14]
  Hypoxia Avg. (HDR): 7.75
  Normoxia Avg. (HDR): 0.37

## O=C1N=C(NCc2cccs2)S/C1=C\c1ccc2ncccc2c1 [Ro 3306]
  Hypoxia Avg. (HDR): 4.91
  Normoxia Avg. (HDR): 1.64

## CN(CCOc1ccc(CC2SC(=O)NC2=O)cc1)c1ccccn1 (stereo not drawn) [Rosiglitazone]
  Hypoxia Avg. (HDR): 4.97
  Normoxia Avg. (HDR): 3.20

## CSc1nc(-c2ccc(F)cc2)c(-c2ccnc(NC(C)c3ccccc3)c2)[nH]1 (stereo not drawn) [ML 3403]
  Hypoxia Avg. (HDR): 4.36
  Normoxia Avg. (HDR): 1.47

## Cc1ccc(C(=O)N(CCCN)[C@@H](c2[nH]c3cc(Cl)ccc3c(=O)[n+]2Cc2ccccc2)C(C)C)cc1 [Ispinesib]
  Hypoxia Avg. (HDR): 4.04
  Normoxia Avg. (HDR): 3.36

## Cc1ccc(C(=O)N(CCCN)[C@@H](c2oc3cc(Cl)ccc3c(=O)c2Cc2ccccc2)C(C)C)cc1.Cl [SB 743921 Hydrochloride]
  Hypoxia Avg. (HDR): 2.97
  Normoxia Avg. (HDR): 4.76

## Nc1nc(Cl)nc2c1ncn2[C@@H]1O[C@H](CO)[C@@H](O)[C@H]1O [2-Chloroadenosine]
  Hypoxia Avg. (HDR): 5.00
  Normoxia Avg. (HDR): 2.45

## CC(=O)[C@H]1CC[C@H]2[C@@H]3CC[C@@H]4C[C@H](O)CC[C@]4(C)[C@H]3CC[C@]12C [Pregnanolone]
  Hypoxia Avg. (HDR): 2.52
  Normoxia Avg. (HDR): 4.43

## CN(C)NC(=O)CCC(=O)O [Daminozide]
  Hypoxia Avg. (HDR): 0.48
  Normoxia Avg. (HDR): 4.57

## CC(C)Cn1c(=O)n(C)c(=O)c2nc[nH]c21 [IBMX]
  Hypoxia Avg. (HDR): 4.23
  Normoxia Avg. (HDR): 3.05

## CC(C)(C)c1ccc(S(=O)(=O)NCc2ccc(C(=O)Nc3cccnc3)cc2)cc1 [STF 31]
  Hypoxia Avg. (HDR): 5.00
  Normoxia Avg. (HDR): 0.40

## Cc1oc(-c2ccccc2)nc1CCOc1ccc(CC2SC(=O)NC2=O)c2sccc12 (stereo not drawn) [Edaglitazone]
  Hypoxia Avg. (HDR): 6.28
  Normoxia Avg. (HDR): 3.56

## c1ccc(-c2ccc(CNc3nc(-c4ccccn4)nnc3-c3ccccc3)cc2)cc1 [ML 228]
  Hypoxia Avg. (HDR): 4.49
  Normoxia Avg. (HDR): 0.46
